Source: patent US20160340647A1, “COMPOSITIONS AND METHODS FOR INDUCING DIFFERENTIATION OF STEM CELLS” (BIODEMAK LLC, priority 2014, published 2016)

Columns and labels:
[1] = test system: RTP801 levels in U87 cells; assay: RTP801 levels in U87 cells; conditions: U87 cells treated 72 hours at the same day of plating
astrocytes = assay: Cell viability of astrocytes after TBHP (CellTiter 96 Aqueous One); format: cell-based, mice; conditions: astrocytes plated seven days, 48 hours 500 μM sulindac
From the text: To obtain a pure culture of astrocytes, NSCs were differentiated in DMEM+10% FBS (both of Gibco) for seven days, trypsinized and re-plated in a new flask with the same medium. Under these circumstances, close to 100% of the cells become astrocytes (GFAP^+ cells).
(§1) Sulindac was obtained from Sigma.
(§2) Background absorbance was subtracted from each sample.

NSCs [2] = assay: Cell viability of NSCs after TBHP (CellTiter 96 Aqueous One); format: cell-based, mice; conditions: TBHP two hours
Method: (§3) NSCs were obtained from the hippocampi of PO BL6 mice and cultured in DMEM/F12 medium (Gibco) containing B27 (Gibco), epidermal growth factor (EGF, 20 ng/ml. Invitrogen) and basic fibroblast growth factor (bFGF 10 ng/ml. Peprotech). To induce cell differentiation, NSC where plated on poli-L-lysine (Sigma) were NSC spontaneously differentiate into neurons, astrocytes and oligodendrocytes as previously described (Lopez-Toledano M A & Shelanski M L (2004) J. Neurosci. 24(23):5439-5444).
as §1, §2

[3] = test system: GSCs obtained from the U87 cell line; assay: Cell viability of GSCs after oxidizing agents (CellTiter 96 Aqueous One); conditions: for GSC killing in combination with oxidizing agents (FIG. 7): treatment 2, 250 uM epimer, 200 uM TBHP
NSCs [4] = assay: Neuronal differentiation of NSCs (beta-tubulin III immunocytochemistry, number of neurons vs control); format: cell-based, mice; conditions: treatment 1: floating NSCs 24 hours with 500 microMolar sulindac, plated on PLL another 24 hours
Method: as §3, §1
(§4) Imaging and Immunocytochemistry: • Phase contrast pictures were obtained using an AmScope camera attached to a Nikon TMS microscope. Indirect immunocytochemistry (ICC) was performed as described previously. Briefly, cells were mechanically disaggregated and plated on poly-L-Lysine (PLL). For ICC the following markers were used: Ki67 for proliferative cells; nestin for NSC; beta-tubulin III for neurons; GFAP for astrocytes and 01 for oligodendrocytes. Epifluorescence microscopes (Leica and Nikon) were used for pictures, counting and visualization of the immunocytochemistry. The total number of neurons was quantified by counting a minimum of 15 fields per treatment in triplicates or quadruplicates and normalized vs. non-treated cultures.

[5] = test system: GSCs obtained from the U87 cell line; assay: Cell differentiation of GSCs (phase contrast morphology, western blot); format: cell-based; conditions: for cell differentiation of GSCs (FIG. 6): treatment 2, two days
Method: as §1, §4

RTP801 levels in GSCs = assay: RTP801 levels in GSCs
[6] = 3 mM As2O3, 30 mM DCA or 400 nM DOX

## CC1=C(CC(=O)O)c2cc(F)ccc2/C1=C\c1ccc([S+](C)[O-])cc1 (centres unmarked) [sulindac]
[1]
  change of RTP801 levels: reduction in RTP801 levels
astrocytes
  effect on TBHP-induced cell death of astrocytes: very similar protection
NSCs [2]; treatment 1, floating NSCs, 500 μM sulindac
  effect on TBHP-induced death of NSCs: protected floating NSCs from TBHP-induced death
NSCs [2]; treatment 2, plated NSCs, 500 μM sulindac 48 hours
  effect on TBHP-induced cell death of NSCs: complete protection against TBHP-induced cell death
[3]; 48 hours, 500 uM sulindac, TBHP, 3 mM As2O3, 30 mM DCA or 400 nM DOX
  GSC sensitivity to different oxidative agents (FIG. 7): increase GSC sensitivity
[3]; treatment 1, 500 μM sulindac 24 hours, TBHP two hours
  effect on TBHP-induced cell death of floating undifferentiated GSCs: no effect
[3]; treatment 2, 500 μM sulindac, TBHP two hours
  effect on TBHP-induced cell death of plated GSCs: increased TBHP-induced cell death
NSCs [4]
  number of neurons (beta-tubulin III+) vs vehicle: significant increase in the number of neurons
[5]; 500 microMolar sulindac
  neuronal differentiation of GSC by Western blot (nestin, DCX, actin): higher neuronal differentiation
[5]; treatment 1: floating GSCs 24 hours with 500 microMolar sulindac, plated on PLL another 24 hours
  cell differentiation of GSCs (morphology) vs vehicle: clear differentiation effect
[5]; 500 uM
  cell differentiation of GSCs (FIG. 6): lower activity
RTP801 levels in GSCs; GSCs at 0+72 (both floating and plated), 0+3 and 0+6
  change of RTP801 levels: increase
RTP801 levels in GSCs; GSCs, sulindac added at the 3rd dpp for 3 days
  change of RTP801 levels: decrease in RTP801

## CC1=C(CC(=O)O)c2cc(F)ccc2/C1=C\c1ccc([S@+](C)[O-])cc1 [sulindac S-epimer]
[3]; [6]
  GSC killing in combination with oxidizing agents (FIG. 7): enhanced killing

## CC(C)Cc1ccc(C(C)C(=O)O)cc1 (centres unmarked) [ibuprofen]
[5]; 400 uM
  cell differentiation of GSCs (FIG. 6): no significant differentiation

## CC1=C(CC(=O)O)c2cc(F)ccc2/C1=C\c1ccc([S@@+](C)[O-])cc1 [sulindac R epimer]
[3]; [6]
  GSC killing in combination with oxidizing agents (FIG. 7): enhanced killing

## CC1=C(CC(=O)O)c2cc(F)ccc2/C1=C\c1ccc(S(C)(=O)=O)cc1 [sulindac sulfone]
[5]; 25 uM
  cell differentiation of GSCs (FIG. 6): lower activity
